Measurements taken from US20140357512A1, “HISTONE DEACETYLASE (HDAC) BIOMARKERS IN MULTIPLE MYELOMA” (priority 2013, published 2014).

Tested on: human myeloma cell line MM.1S
Assay: SILAC acetylated-lysine peptide profiling, HDAC inhibitor vs DMSO (light/heavy ratio)
Format: cell-based
Source text: An embodiment of the invention comprises utilizing the SILAC method in order to quantitate changes in protein expression between two or more populations of cells. The SILAC method is a technique based on mass spectrometry that detects differences in protein abundance among samples using non-radioactive isotopic labeling. The SILAC method is known in the art, and described in detail in Ong et al., “Stable Isotope Labeling by Amino Acids in Cell Culture, SILAC, as a Simple and Accurate Approach to Expression Proteomics”, Molecular & Cellular Proteomics, vol. 1, pp. 376-386 (2002), which is incorporated herein by reference in its entirety.
Briefly, the SILAC method involves growing two populations of cells in cell culture. The first population of cells is grown in growth media containing normal amino acids (“normal media”). The second population of cells is grown in media lacking a standard essential amino acid (such as lysine), but is then supplemented with a non-radioactive, isotopically labeled form of that essential amino acid (such as lysine labeled with ^13C atoms, rather than normal ^12C atoms), which is called “heavy media”. When the two populations of cells are each growing in the medium, they incorporate the amino acids into all of their proteins. The growth of cells maintained in the heavy media is no different from that in normal media. All peptides containing the heavy amino acids are heavier than their normal counterparts. The cells from each of the two populations of cells are lysed. The lysates from each of the two cell populations are then combined. The combined cell lysates are then analyzed by mass spectrometry. Pairs of chemically identical peptides of different stable isotope composition can be differentiated in a mass spectrometer due to their difference in mass. The ratio of peak intensities in the mass spectrum for such peptide pairs reflects the abundance ratio for the two proteins.
This example describes SILAC studies that were performed to compare the effects of three different HDAC inhibitors (Compound A, Compound B, and tubastatin A) to a control on a human multiple myeloma cell line. The HDAC inhibitors were also compared amongst themselves to determine differences in their effects.
A human myeloma cell line MM.1S was grown using either ^12C (light) or ^13C (heavy) lysine containing culture medium. The “heavy” cells were treated with DMSO as the control, and the “light” cells were treated with a single HDAC inhibitor at 37° C. for 6 hours. The heavy and light cells were lysed, and the lysates were mixed in 1:1 ratio and digested with the protease trypsin. The acetylated lysine containing peptides (due to the action of the HDAC inhibitor) in the digested peptide pool were captured by a non-specific anti-acetylated lysine antibody cocktail (the antibodies identify both light and heavy acetylated peptides), and subjected to mass spectrometry analysis in order to identify thousands of individual peptides.
Thousands of peptides were identified in pairs (^12C and ^13C) due to their known mass differences. The amino acid sequence and quantitative ratio (Light/Heavy) of a given peptide in two differentially treated cell lysates were then determined and annotated with their possible protein (gene) sources.
As stated above, three HDAC inhibitors (Compound A, Compound B, and Tubastatin A) were used. Thus, the SILAC method was performed three times, with a different HDAC inhibitor compared to a control each time. Accordingly, there are three pairs of quantitative data in the table below, i.e., Compound A:DMSO, Compound B:DMSO, and Tubastatin A:DMSO. A cut-off of 1.30 fold of change (increase or decrease) was then used to determine “changed” or “+” in the table, and any peptides with a fold of change less than 1.3 fold were determined to be “unchanged” or “0” in the table. Those peptides that were not identified were marked as “NA” in the table. […]

In the case of `O=C(CCCCCCNC(=O)c1cnc(N(c2ccccc2)c2ccccc2)nc1)NO` [Compound A, 2-(diphenylamino)-N-(7-(hydroxyamino)-7-oxoheptyl)pyrimidine-5-carboxamide], the “light to heavy ratio (L/H ratio) of acetylated peptide AIFAGYK(ac)R (SEQ ID NO: 300)” value (60S ribosomal protein L35a [15], RPL35A, drug:DMSO) is reported as 0.86 log 2, the “light to heavy ratio (L/H ratio) of acetylated peptide KIEISQHAK(ac)YTCSFCGK (SEQ ID NO: 351)” value (60S ribosomal protein L37a [36], RPL37A, drug:DMSO) is reported as 0.00 log 2 and the “light to heavy ratio (L/H ratio) of acetylated peptide SIDLK(ac)DK (SEQ ID NO: 572)” value (60 kDa heat shock protein mitochondrial [87], gene HSPD1, inhibitor:DMSO) is reported as 0.42 log 2. For the same compound, the “light to heavy ratio (L/H ratio) of acetylated peptide VMEHFIK(ac)LYK (SEQ ID NO: 276)” value (78 kDa glucose-regulated protein [268], HSPA5, drug:DMSO) was 0.54 log 2, the “light to heavy ratio (L/H ratio) of acetylated peptide AK(ac)[…] (SEQ ID NO: 266)” value (78 kDa glucose-regulated protein [326], HSPA5, drug:DMSO) was 0.44 log 2 and the “light to heavy ratio (L/H ratio) of acetylated peptide FK(ac)[…] (SEQ ID NO: 333)” value (116 kDa U5 small nuclear ribonucleoprotein component [790], EFTUD2, drug:DMSO) was 0.00 log 2. The “L/H ratio of acetylated peptide […](ac)LAR (SEQ ID NO: 19)” value (ACADVL [428], log 2 scale, drug vs DMSO) was 0.00, the “L/H ratio of acetylated peptide LDHLAEK(ac)FR (SEQ ID NO: 20)” value (ACTN1 [398], log 2 scale, drug vs DMSO) was 0.00 and the “light to heavy ratio (L/H ratio) of acetylated peptide IFGSNK(ac)WTTEQQQR (SEQ ID NO: 306)” value (ADP-ribosylation factor-like protein 6-interacting protein 1 [96], ARL6IP1, drug:DMSO) was 1.00 log 2. The “light to heavy ratio (L/H ratio) of acetylated peptide TTLLYK(ac)LK (SEQ ID NO: 624)” value (ADP-ribosylation factor-like protein 11 [31], gene ARL11, inhibitor:DMSO) was 0.49 log 2, the “light to heavy ratio (L/H ratio) of acetylated peptide IFK(ac)SDGLR (SEQ ID NO: 280)” value (ADP/ATP translocase 1 [166], SLC25A4, drug:DMSO) was 0.56 log 2 and the “light to heavy ratio (L/H ratio) of acetylated peptide ITK(ac)SDGIR (SEQ ID NO: 587)” value (ADP/ATP translocase 3 [166], gene SLC25A6, inhibitor:DMSO) was 0.44 log 2. The “L/H ratio of acetylated peptide” value (AK(ac)HDELTYF (SEQ ID NO: 497), Cystatin-B [91], CSTB) was −0.88 log 2, the “light to heavy ratio (L/H ratio) of acetylated peptide, log 2 scale” value (ALDLNLK(ac)HQILPK (SEQ ID NO: 248), Cytochrome b-c1 complex subunit 7 [72], UQCRB) was −0.50 and the “L/H ratio of acetylated peptide LK(ac)[…] (SEQ ID NO: 21)” value (ANP32B [101], log 2 scale, drug vs DMSO) was 0.00. For the same compound, the “L/H ratio of acetylated peptide […](ac)SLYGK (SEQ ID NO: 22)” value (ANXA6 [63], log 2 scale, drug vs DMSO) was 0.00, the “L/H ratio of acetylated peptide MYFDK(ac)[…] (SEQ ID NO: 23)” value (ATAD3A [491], log 2 scale, drug vs DMSO) was 0.00 and the “L/H ratio of acetylated peptide IVEYEK(ac)EMEK (SEQ ID NO: 24)” value (ATP5H [117], log 2 scale, drug vs DMSO) was 0.00. The “L/H ratio of acetylated peptide YYNK(ac)YINVK (SEQ ID NO: 12)” value (ATP5J2 [54], log 2 scale, drug vs DMSO) was 0.54, the “light to heavy ratio (L/H ratio) of acetylated peptide QNK(ac)LEQVEK (SEQ ID NO: 271)” value (ATP synthase subunit O mitochondrial [54], ATP50, drug:DMSO) was 0.46 log 2 and the “light to heavy ratio (L/H ratio) of acetylated peptide STVAQLVK(ac)R (SEQ ID NO: 552)” value (ATP synthase subunit alpha mitochondrial [261], gene ATP5A1, inhibitor:DMSO) was 0.39 log 2. The “light to heavy ratio (L/H ratio) of acetylated peptide ISEQSDAK(ac)LK (SEQ ID NO: 600)” value (ATP synthase subunit alpha mitochondrial [539], gene ATP5A1, inhibitor:DMSO) was 0.46 log 2, the “light to heavy ratio (L/H ratio) of acetylated peptide […](ac)ETIAK (SEQ ID NO: 307)” value (ATP synthase subunit b mitochondrial [233], ATP5F1, drug:DMSO) was 1.00 log 2 and the “light to heavy ratio (L/H ratio) of acetylated peptide LVPLK(ac)ETIK (SEQ ID NO: 507)” value (ATP synthase subunit beta mitochondrial [485], gene ATP5B, inhibitor:DMSO) was −0.64 log 2. For the same compound, the “light to heavy ratio (L/H ratio) of acetylated peptide […](ac)QLTVK (SEQ ID NO: 279)” value (ATP synthase subunit g mitochondrial [66], ATP5L, drug:DMSO) was 0.56 log 2, the “light to heavy ratio (L/H ratio) of acetylated peptide FEDPK(ac)FEVIEKPQA (SEQ ID NO: 325)” value (ATP synthase-coupling factor 6 mitochondrial [99], ATP5J, drug:DMSO) was 0.00 log 2 and the “light to heavy ratio (L/H ratio) of acetylated peptide SAQEAYK(ac)SYIR (SEQ ID NO: 502)” value (ATP-dependent RNA helicase DDX18 [584], gene DDX18, inhibitor:DMSO) was −0.74 log 2. The “light to heavy ratio (L/H ratio) of acetylated peptide MQK(ac)[…] (SEQ ID NO: 526)” value (Actin aortic smooth muscle [317], gene ACTA2, inhibitor:DMSO) was −0.44 log 2, the “light to heavy ratio (L/H ratio) of acetylated peptide AFAK(ac)ELFLGK (SEQ ID NO: 627)” value (Acyl-CoA dehydrogenase family member 9 mitochondrial [41], gene ACAD9, inhibitor:DMSO) was 0.49 log 2 and the “light to heavy ratio (L/H ratio) of acetylated peptide YSAK(ac)DYFFK (SEQ ID NO: 319)” value (Alpha-soluble NSF attachment protein [203], NAPA, drug:DMSO) was 1.00 log 2. For the same compound, the “light to heavy ratio (L/H ratio), log 2 scale, acetylated peptide SELTGK(ac)FEK (SEQ ID NO: 778)” value (Annexin A5 [76], gene ANXA5, drug:DMSO) was 1.00, the “light to heavy ratio (L/H ratio) of acetylated peptide PAQGAK(ac)YR (SEQ ID NO: 305)” value (Annexin A6 [9], ANXA6, drug:DMSO) was 1.00 log 2 and the “light to heavy ratio (L/H ratio) of acetylated peptide TKYEK(ac)SLYSMIK (SEQ ID NO: 270)” value (Annexin A6 [299], ANXA6, drug:DMSO) was 0.46 log 2. For the same compound, the “light to heavy ratio (L/H ratio) of acetylated peptide NDTSGEYK(ac)K (SEQ ID NO: 285)” value (Annexin A6 [314], ANXA6, drug:DMSO) was 0.61 log 2, the “light to heavy ratio (L/H ratio) of acetylated peptide AINEAYK(ac)EDYHK (SEQ ID NO: 282)” value (Annexin A6 [478], ANXA6, drug:DMSO) was 0.59 log 2 and the “light to heavy ratio (L/H ratio) of acetylated peptide NKPLFFADK(ac)LYK (SEQ ID NO: 298)” value (Annexin A6 [607], ANXA6, drug:DMSO) was 0.78 log 2.
